Data published in patent publication US11518764B2, “Substituted heteroaryls as inhibitors of the BCL6 BTB domain protein-protein interaction” (Ontario Institute for Cancer Research (OICR), priority 2018, dated 2022).
Where two headings read alike, the source gives them in different places.

What was measured:
BCL6 BTB domain = BCL6 BTB domain (Homo sapiens (Human), UniProt P41182); test: Surface plasmon resonance (SPR) assay; type: binding; conditions: BCL6 BTB domain captured on SA chip, single cycle kinetics
[1] = test system: BCL6 reporter construct (3xBCL6-TK-Luc) in SuDHL4 cells; test: Cell-based luciferase assay
In short: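 SuDHL4 cells stably carrying a 3×BCL6-site TK-promoter firefly luciferase reporter, seeded at 15,000 cells/well, were dosed over a 10-point range (top 10 uM) and grown two days at 37 °C, 5% CO2. Luminescence then read after adding neolite reagent at room temperature.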

Karpas422 cells = test: Tumor cell growth inhibition assay; type: cell-based
In short: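 Karpas422 cells (2,000/well) in Alpha-MEM with 10% FBS dosed across 10 concentrations (top 5 uM) and grown six days at 37° C., 5% CO2. Viability read as ATPlite luminescence.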

[2] = Homo sapiens, SU-DHL-4, 48 h, read-out: Luciferase-Assay EC50, uM), SuDHL4-3xBCL6-TK-Luc cells, two days, high dose 10 uM
[3] = Homo sapiens, KARPAS-422, 144 h, read-out: Tumor Growth Inhibition in Karpas-422 (IC50, uM), Karpas422 cells, six days, ATPlite

SMILES	Kd (BCL6 BTB domain) [nM]	EC50 [1, 2] [µM]	IC50 (Karpas422 cells; [3]) [µM]	EC50 ([1]; read-out: Luciferase-Assay EC50, SuDHL4-3xBCL6-TK-Luc cells, two days, high dose 10 uM) [µM]	IC50 (Karpas422 cells; read-out: Tumor Growth Inhibition in Karpas-422 (IC50), Karpas422 cells, six days, ATPlite) [µM]
Cn1cnc2c(c(-c3cc(Cl)c(O)c(C(N)=O)c3)cn2CC(=O)Nc2cc(N3CCOC4(CCC4)C3)ncc2Cl)c1=O [Compound I-350]	63.9	0.486	0.897	–	–
C[C@H]1CN(C2COC2)CCN1c1cc(NC(=O)Cn2cc(-c3cc(F)c(O)c(C(N)=O)c3)c3c(=O)n(C)cnc32)c(Cl)c(F)n1 [Compound I-438]	2.5	0.0686	0.0508	–	–
C[C@H]1CN(CC2CC2)CCN1c1cc(NC(=O)Cn2cc(-c3cc(F)c(O)c(C(N)=O)c3)c3c(=O)n(C)cnc32)c(Cl)c(F)n1 [Compound I-445]	7.32	0.0854	0.0622	–	–
Cc1nc2c(c(-c3cc(Cl)c(O)c(C(N)=O)c3)cn2CC(=O)Nc2cc(N3CCN(C)C[C@@H]3C)ncc2Cl)c(=O)[nH]1 [Compound I-128]	12	0.173	0.074	–	–
CN1CCN(c2cc(NC(=O)Cn3cc(-c4cc(Cl)c(O)c(C(N)=O)c4)c4c(=O)n(C)cnc43)c(Cl)cn2)C(C)(C)C1 [Compound I-352]	59.7	0.79	0.346	–	–
COCCN1CCN(c2cc(NC(=O)Cn3cc(-c4cc(Cl)c(O)c(C(N)=O)c4)c4c(=O)n(C)cnc43)c(Cl)cn2)[C@@H](C)C1 [Compound I-415]	5.95	0.0872	0.122	–	–
CN1CCN(c2cc(NC(=O)Cn3cc(-c4cc(C(N)=O)c(O)c(F)c4F)c4c(=O)n(C)cnc43)c(Cl)cn2)C(C)(C)C1 [Compound I-327]	271	3	2.07	–	–
C[C@H]1CCCN1c1cc(NC(=O)Cn2cc(-c3cc(Cl)c(O)c(C(N)=O)c3)c3c(=O)n(C)cnc32)c(Cl)cn1 [Compound I-136]	55	0.578	0.96	–	–
CCN1CCN(c2cc(NC(=O)Cn3cc(-c4cc(F)c(O)c(C(N)=O)c4)c4c(=O)n(C)cnc43)c(Cl)c(F)n2)[C@@H](C)C1 [Compound I-428]	2.35	0.102	0.0682	–	–
Cc1nc2c(c(-c3cc(C(N)=O)c(O)c4c3OCCO4)cn2CC(=O)Nc2cc(N3CCOC[C@@H]3C)ncc2Cl)c(=O)n1C [Compound I-309]	146	1.02	2.55	–	–
Cn1cnc2c(c(-c3cc(Cl)c(O)c(C(N)=O)c3)cn2CC(=O)Nc2cc(N3CCOCC3)c(F)cc2Cl)c1=O [Compound I-195]	196	1.5	1.08	–	–
Cc1nc2c(c(-c3cc(C(N)=O)c(O)c(F)c3F)cn2CC(=O)Nc2cc(N3CCN(C4CC4)C[C@@H]3C)ncc2Cl)c(=O)n1C [Compound I-379]	68.6	0.664	0.853	–	–
CN1CCOC2(CCN(c3cc(NC(=O)Cn4cc(-c5cc(C(N)=O)c(O)cc5F)c5c(=O)n(C)cnc54)c(Cl)cn3)C2)C1 (stereo not drawn) [Compound I-184]	37.4	0.348	0.26	–	–
C[C@H]1COCCN1c1cc(NC(=O)Cn2cc(-c3cc(Cl)c(O)c(C(N)=O)c3)c3c(=O)[nH]cnc32)c(Cl)cn1 [Compound I-145]	6.09	0.303	0.551	–	–
COc1ncc(Cl)c(NC(=O)Cn2cc(-c3cc(Cl)c(O)c(C(N)=O)c3)c3c(=O)n(C)c(C)nc32)c1F [Compound I-382]	342	3.1	10	–	–
Cn1cnc2c(c(-c3cc(Cl)c(O)c(C(N)=O)c3)cn2CC(=O)Nc2cc(N3CC4(CCOC4)C3)ncc2Cl)c1=O [Compound I-351]	40.1	0.591	1.2	–	–
Cn1cnc2c(c(-c3cc(F)c(O)c(C(N)=O)c3)cn2CC(=O)Nc2cc(N3CCCC3)ncc2Cl)c1=O [Compound I-273]	5.31	0.416	0.251	–	–
CN(C1CCC(c2cc(NC(=O)Cn3cc(-c4cc(Cl)c(O)c(C(N)=O)c4)c4c(=O)n(C)cnc43)c(Cl)cn2)C1)S(C)(=O)=O (stereo not drawn) [Compound I-149]	16.3	–	–	0.725	0.617
Cc1nc2c(c(-c3cc(F)c(O)c(C(N)=O)c3)cn2CC(=O)Nc2cc(N3CC4CCC(C3)O4)ncc2Cl)c(=O)n1C [Compound I-199]	8.18	0.117	0.0909	–	–
C[C@H]1COCCN1c1cc(NC(=O)Cn2cc(-c3cc(F)c(O)c(C(N)=O)c3)c3c(=O)n(C)ccc32)c(Cl)cn1 [Compound I-137]	66	1.34	1.74	–	–
Cn1cnc2c(c(-c3cc(Cl)c(O)c(C(N)=O)c3)cn2CC(=O)Nc2cc(N3CC4CCC3C4)ncc2Cl)c1=O (stereo not drawn) [Compound I-126]	39	2.85	0.268	–	–

SMILES	Kd (BCL6 BTB domain) [nM]	EC50 [1, 2] [µM]	IC50 (Karpas422 cells; [3]) [µM]	EC50 ([1]; read-out: Luciferase-Assay EC50, SuDHL4-3xBCL6-TK-Luc cells, two days, high dose 10 uM) [µM]	IC50 (Karpas422 cells; read-out: Tumor Growth Inhibition in Karpas-422 (IC50), Karpas422 cells, six days, ATPlite) [µM]
Cc1nc2c(c(-c3cc(Cl)c(O)c(C(N)=O)c3)cn2CC(=O)Nc2cc(N3CCOC[C@@H]3C)nc(F)c2Cl)c(=O)n1C [Compound I-315]	14.2	0.114	0.147	–	–
Cn1cnc2c(c(-c3cc(Cl)c(O)c(C(N)=O)c3)cn2CC(=O)Nc2c(F)c(F)nc(F)c2Cl)c1=O [Compound I-210]	1100	14.9	6.16	–	–
Cn1cnc2c(c(-c3cc(Cl)c(O)c(C(N)=O)c3)cn2CC(=O)Nc2ccc(F)cc2Cl)c1=O [Compound I-383]	460	2.44	1.05	–	–
CN(C)c1cc(NC(=O)Cn2cc(-c3cc(Cl)c(O)c(C(N)=O)c3)c3c(=O)n(C)c(NCC4CC4)nc32)c(Cl)cn1 [Compound I-130]	80	1.03	0.775	–	–
Cn1cnc2c(c(-c3cc(Cl)c(O)c(C(N)=O)c3)cn2CC(=O)Nc2cc(N3C4CCC3COC4)ncc2Cl)c1=O [Compound I-279]	10.2	0.468	0.197	–	–
Cn1cnc2c(c(-c3cc(F)c(O)c(C(N)=O)c3)cn2CC(=O)Nc2cc(N3CCOCC3)c(F)cc2Cl)c1=O [Compound I-219]	70.9	0.535	0.216	–	–
CC[C@@H]1CN(c2cc(NC(=O)Cn3cc(-c4cc(Cl)c(O)c(C(N)=O)c4)c4c(=O)n(C)cnc43)c(Cl)cn2)CCO1 [Compound I-202]	23.9	0.211	0.156	–	–
C[C@H]1COCCN1c1cc(NC(=O)Cn2cc(-c3cc(Cl)c(O)c(C(N)=O)c3)c3c(=O)n(C)c(N4CCC4)nc32)c(Cl)cn1 [Compound I-270, (S)-5-(2-(azetidin-1-yl)-7-(2-((5-chloro-2-(3-methylmorpholino)pyridin-4-yl)amino)-2-oxoethyl)-3-methyl-4-oxo-4,7-dihydro-3H-pyrrolo[2,3-d]pyrimidin-5-yl)-3-chloro-2-hydroxybenzamide]	63	2.31	3.82	–	–
C[C@H]1CN(C2COC2)CCN1c1cc(NC(=O)Cn2cc(-c3cc(Cl)c(O)c(C(N)=O)c3)c3c(=O)n(C)cnc32)c(Cl)c(F)n1 [Compound I-413]	6.15	0.06	0.0822	–	–
Cn1cnc2c(c(-c3cc(F)c(O)c(C(N)=O)c3)cn2CC(=O)Nc2cc(N3CC4CCC(C3)O4)ncc2Cl)c1=O [Compound I-176]	6.06	0.239	0.137	–	–
CN1CCOC2(CCN(c3cc(NC(=O)Cn4cc(-c5cc(F)c(O)c(C(N)=O)c5)c5c(=O)n(C)cnc54)c(Cl)cn3)C2)C1 (stereo not drawn) [Compound I-177]	5.88	0.629	0.331	–	–
Cn1cnc2c(c(-c3cc(F)c(O)c(C(N)=O)c3)cn2CC(=O)Nc2cc(N3C[C@H]4CC[C@@H](C3)N4CC(F)(F)F)ncc2Cl)c1=O [Compound I-476]	13.7	0.159	0.118	–	–
Cn1cnc2c(c(-c3cc(Cl)c(O)c(C(N)=O)c3)cn2CC(=O)Nc2cc(N3CCOC4CCCC43)ncc2Cl)c1=O (stereo not drawn) [Compound I-280]	101	1.4	0.821	–	–
C[C@@H]1COC[C@H](C)N1c1cc(NC(=O)Cn2cc(-c3cc(Cl)c(O)c(C(N)=O)c3)c3c(=O)n(C)cnc32)c(Cl)cn1 [Compound I-264]	30.3	0.347	0.376	–	–
C[C@@H](C1CC1)N1CCN(c2cc(NC(=O)Cn3cc(-c4cc(C(N)=O)c(O)c(F)c4F)c4c(=O)n(C)cnc43)c(Cl)cn2)[C@@H](C)C1 [Compound I-424]	26.1	0.309	0.157	–	–
Cn1cnc2c(c(-c3cc(F)c(O)c(C(N)=O)c3)cn2CC(=O)Nc2cc(N3CC4COCC4C3)ncc2Cl)c1=O (stereo not drawn) [Compound I-275]	4.76	0.209	0.137	–	–
C[C@H]1CN(CC2CC2)CCN1c1cc(NC(=O)Cn2cc(-c3cc(C(N)=O)c(O)c(F)c3F)c3c(=O)n(C)cnc32)c(Cl)c(F)n1 [Compound I-443]	18.6	0.285	0.149	–	–
Cc1nc2cc(Cl)c(NC(=O)Cn3cc(-c4cc(F)c(O)c(C(N)=O)c4)c4c(=O)n(C)cnc43)cc2s1 [Compound I-160]	39.1	0.396	0.507	–	–
C[C@H]1COCCN1c1cc(NC(=O)Cn2cc(-c3cc(Cl)c(O)c(C(N)=O)c3)c3c(=O)n(C)cnc32)c(Cl)c(F)n1 [Compound I-235]	14	0.139	0.138	–	–
Cn1cnc2c(c(-c3cc(Cl)c(O)c(C(N)=O)c3)cn2CC(=O)Nc2cc(N3CC4CC(C3)O4)ncc2Cl)c1=O [Compound I-282]	21.3	0.669	0.489	–	–
